Measurements taken from patent publication US20240277713A1 (Kadmon Corporation, LLC, priority 2022, published 2024).

Experiments:
Sprague-Dawley rats = assay: Pilot prenatal developmental toxicity study in Sprague-Dawley rats (Example 1); assay type: in vivo, rat
Text: A total of 52 Sprague-Dawley (SD) rats were used in this study.
Observations of the animals included cageside assessments (twice daily), evaluation of clinical signs (daily from GD 6 through 20), body weights (at arrival—GD 2 or 3—and GD 6, 9, 12, 15, 18, and 20), food consumption (GD 6-20), and anatomical pathology including a uterine examination. […] All fetuses were given an external examination.

[1] = Toxicokinetics in pregnant New Zealand White rabbits (Example 2); assay type: in vivo, rabbit; conditions: female, New Zealand White, rabbit, in vivo, po; for AUC(0-t): read-out: maternal AUC0-24; for Cmax: read-out: maternal Cmax
Procedure: The study was conducted in two phases: Phase A was a dose range finding tolerance study with non-pregnant rabbits, and Phase B was the pilot developmental toxicity study.
All fetuses were given the appropriate external examination.

CYP1A2 = biological target: T1, CYP1A2 (Homo sapiens, UniProt P05177); assay: Enzyme systems in vitro: CYP1A2; assay type: in vitro ADME
T1 sequence (P05177 1-516): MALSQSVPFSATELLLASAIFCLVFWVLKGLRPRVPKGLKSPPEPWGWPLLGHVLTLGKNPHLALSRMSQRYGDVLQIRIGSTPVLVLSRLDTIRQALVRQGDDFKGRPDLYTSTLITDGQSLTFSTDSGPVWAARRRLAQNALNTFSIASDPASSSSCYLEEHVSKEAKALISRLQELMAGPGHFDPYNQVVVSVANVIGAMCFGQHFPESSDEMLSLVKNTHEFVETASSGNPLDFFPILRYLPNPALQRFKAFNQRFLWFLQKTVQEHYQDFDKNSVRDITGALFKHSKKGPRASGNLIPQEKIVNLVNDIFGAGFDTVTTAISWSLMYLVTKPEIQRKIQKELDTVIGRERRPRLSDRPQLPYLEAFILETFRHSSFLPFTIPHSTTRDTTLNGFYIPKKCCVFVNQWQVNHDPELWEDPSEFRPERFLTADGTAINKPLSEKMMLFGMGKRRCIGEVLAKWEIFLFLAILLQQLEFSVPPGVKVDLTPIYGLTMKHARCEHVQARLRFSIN

UGT1A9 = biological target: T2, UGT1A9 (Homo sapiens, UniProt O60656); assay: Enzyme systems in vitro: UGT1A9; assay type: in vitro ADME
T2 sequence (O60656 26-530): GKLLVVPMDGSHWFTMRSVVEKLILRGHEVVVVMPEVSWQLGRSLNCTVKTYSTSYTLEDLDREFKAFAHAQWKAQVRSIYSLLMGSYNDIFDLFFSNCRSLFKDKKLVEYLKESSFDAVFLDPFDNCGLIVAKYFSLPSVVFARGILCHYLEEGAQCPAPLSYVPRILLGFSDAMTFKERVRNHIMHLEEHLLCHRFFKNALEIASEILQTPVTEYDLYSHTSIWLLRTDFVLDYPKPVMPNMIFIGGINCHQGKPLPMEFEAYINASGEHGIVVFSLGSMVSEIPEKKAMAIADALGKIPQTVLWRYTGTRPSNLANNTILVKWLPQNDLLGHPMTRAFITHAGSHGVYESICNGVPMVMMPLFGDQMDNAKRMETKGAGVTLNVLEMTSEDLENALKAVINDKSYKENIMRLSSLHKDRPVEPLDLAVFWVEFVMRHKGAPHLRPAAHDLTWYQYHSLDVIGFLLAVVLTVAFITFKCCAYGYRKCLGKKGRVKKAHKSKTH

[2] = test system: human peripheral blood lymphocytes (HPBL); assay: in vitro chromosome aberration assay; assay type: cell-based
human serum albumin = human serum albumin (Homo sapiens, UniProt P02768); assay: Binding to human serum albumin in vitro; assay type: in vitro ADME
human serum albumin, sequence (P02768 25-609): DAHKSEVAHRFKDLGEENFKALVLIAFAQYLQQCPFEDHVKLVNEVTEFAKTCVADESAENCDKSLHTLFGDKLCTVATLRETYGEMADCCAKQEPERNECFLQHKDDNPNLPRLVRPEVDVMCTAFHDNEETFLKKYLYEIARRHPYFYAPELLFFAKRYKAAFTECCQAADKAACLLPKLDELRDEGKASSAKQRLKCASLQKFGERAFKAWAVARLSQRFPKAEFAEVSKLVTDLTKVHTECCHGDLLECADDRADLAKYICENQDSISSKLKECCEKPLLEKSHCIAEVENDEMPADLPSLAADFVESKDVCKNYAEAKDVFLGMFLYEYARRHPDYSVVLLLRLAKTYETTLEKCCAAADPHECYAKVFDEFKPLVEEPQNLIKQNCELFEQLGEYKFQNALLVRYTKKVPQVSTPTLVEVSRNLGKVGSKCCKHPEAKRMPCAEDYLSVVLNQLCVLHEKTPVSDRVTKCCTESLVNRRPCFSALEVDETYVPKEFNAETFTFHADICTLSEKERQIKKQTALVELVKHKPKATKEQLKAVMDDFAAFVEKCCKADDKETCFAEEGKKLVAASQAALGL

[3] = Toxicokinetic analysis in rat plasma (Example 5); assay type: in vivo; conditions: for Cmax / AUC(0-t): rat, plasma; for AUC(0-t): read-out: AUC0-24
Procedure: TK animals were dosed for 70 and 14 days for the males and females, respectively. Dosing of TK males and females was initiated simultaneously, continuing to euthanasia. Refrigerated daily aliquots of dosing formulations were brought to room temperature while continuously stirring for at least 30 minutes prior to dosing.

[4] = test system: CYP3A4, CYP2C8, CYP2D6, and UGT1A9; assay: Metabolism in vitro; assay type: in vitro ADME
[5] = biological target: CYP3A4, CYP2C8, CYP2D6, and UGT1A9 (Homo sapiens, UniProt P08684); assay: Metabolism in vitro; assay type: in vitro ADME
CYP3A4, CYP2C8, CYP2D6, and UGT1A9 (Homo sapiens, UniProt P08684), sequence (P08684 2-503): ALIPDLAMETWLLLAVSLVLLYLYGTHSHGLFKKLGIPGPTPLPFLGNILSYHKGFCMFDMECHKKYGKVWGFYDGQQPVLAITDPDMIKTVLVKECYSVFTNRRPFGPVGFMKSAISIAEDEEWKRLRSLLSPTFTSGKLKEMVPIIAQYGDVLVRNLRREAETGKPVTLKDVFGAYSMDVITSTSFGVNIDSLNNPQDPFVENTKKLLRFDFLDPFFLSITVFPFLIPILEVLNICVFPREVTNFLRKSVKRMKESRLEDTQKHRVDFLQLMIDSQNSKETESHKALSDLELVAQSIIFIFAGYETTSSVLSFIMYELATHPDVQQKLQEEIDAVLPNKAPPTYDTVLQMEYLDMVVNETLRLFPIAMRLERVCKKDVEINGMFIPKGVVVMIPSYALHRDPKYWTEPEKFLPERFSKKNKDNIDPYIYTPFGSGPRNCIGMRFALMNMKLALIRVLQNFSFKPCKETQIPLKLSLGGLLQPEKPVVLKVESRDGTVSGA

[6] = Group 14 (50 mg base/kg/day), Day 1

With CC(C)NC(=O)COc1cccc(-c2nc(Nc3ccc4[nH]ncc4c3)c3ccccc3n2)c1 [belumosudil, 2-{3-[4-(1H-indazol-5-ylamino)-2-quinazolinyl]phenoxy}-N-(propan-2-yl) acetamide] the Mean post-implantation loss (Sprague-Dawley rats; 25 mg base/kg/day) was 4.00 % per litter, the “Mean viable litter size” value (Sprague-Dawley rats; 25 mg base/kg/day) was 13.2 and the “combined mean fetal body weight (males and females)” value (from here on “combined mean fetal body weight”) (Sprague-Dawley rats; 25 mg base/kg/day) was 4.37 g. For the same compound, the “mean fetal body weight (female fetuses)” value (Sprague-Dawley rats; 25 mg base/kg/day) was 4.19 g, the Mean post-implantation loss (Sprague-Dawley rats; 50 mg base/kg/day) was 11.62 % per litter and the “Mean viable litter size” value (Sprague-Dawley rats; 50 mg base/kg/day) was 11.6. For the same compound, the “combined mean fetal body weight” value (Sprague-Dawley rats; 50 mg base/kg/day) was 4.50 g, the “litter incidence of external fetal malformations” value (shortened to “litter incidence”) (Sprague-Dawley rats; 50 mg base/kg/day) was 40% and the “mean fetal body weight (female fetuses)” value (Sprague-Dawley rats; 50 mg base/kg/day) was 4.39 g. The Mean post-implantation loss (Sprague-Dawley rats; 150 mg base/kg/day) was 4.51 % per litter, the “Mean viable litter size” value (Sprague-Dawley rats; 150 mg base/kg/day) was 12.2 and the “combined mean fetal body weight” value (Sprague-Dawley rats; 150 mg base/kg/day) was 4.22 g. The “litter incidence” value (Sprague-Dawley rats; 150 mg base/kg/day) was 20%, the maternal toxicity (Sprague-Dawley rats; 150 mg base/kg/day) was “moderate” and the mean body weights (Sprague-Dawley rats; 150 mg base/kg/day) was “reduced throughout gestation”. The “mean fetal body weight (female fetuses)” value (Sprague-Dawley rats; 150 mg base/kg/day) was 4.18 g, the Mean post-implantation loss (Sprague-Dawley rats; 300 mg base/kg/day) was 24.51 % per litter and the “Mean viable litter size” value (Sprague-Dawley rats; 300 mg base/kg/day) was 10.0. For the same compound, the clinical signs (Sprague-Dawley rats; 300 mg base/kg/day) was “unkempt and/or thin appearance, and hunched posture”, the “combined mean fetal body weight” value (Sprague-Dawley rats; 300 mg base/kg/day) was 3.42 g and the “litter incidence” value (Sprague-Dawley rats; 300 mg base/kg/day) was 25%. The “maternal, embryo, and fetal toxicity” value (Sprague-Dawley rats; 300 mg base/kg/day) was “excessive”, the “mean body weight values, body weight gains and food consumption” value (Sprague-Dawley rats; 300 mg base/kg/day) was “adversely affected at every interval” and the “mean fetal body weight (female fetuses)” value (Sprague-Dawley rats; 300 mg base/kg/day) was 3.34 g. For the same compound, the maternal toxicity (Sprague-Dawley rats; 25 and 50 mg base/kg/day) was “slight”, the “mean body weight gains and food consumption” value (Sprague-Dawley rats; 25 and 50 mg base/kg/day, GD 6-9, 6-18, 6-20) was “slightly reduced” and the maternal necropsy findings (Sprague-Dawley rats; any treated group) was “No adverse maternal necropsy findings”. For the same compound, the “doses at which fetal malformations were observed (absence of anus and tail, omphalocele, dome shaped head)” value (Sprague-Dawley rats; pilot study, pregnant rats, oral) was no less than 50 mg/kg/day, the AUC(0-t) ([1]; 50 mg/kg/day) was 2480 ng·h/mL and the Cmax ([1]; 50 mg/kg/day) was 621 ng/mL. The AUC(0-t) ([1]; 250 mg/kg/day) was 15600 ng·h/mL, the Cmax ([1]; 250 mg/kg/day) was 2100 ng/mL and the CYP1A2 inhibition (CYP1A2) was “inhibitor”. For the same compound, the UGT1A9 inhibition (UGT1A9) was “inhibitor”, the “genotoxicity, chromosome aberration assay” value [2] was “not genotoxic” and the “binding to human serum albumin” value (human serum albumin) was 99.9%. For the same compound, the AUC0-24 in rat plasma ([3]; Day 1, belumosudil 50 mg base/kg, F) was 49200 ng·h/mL, the AUC0-24 in rat plasma ([3]; Day 1, belumosudil 50 mg base/kg, M) was 20100 ng·h/mL and the AUC0-24 in rat plasma ([3]; Day 1, belumosudil 150 mg base/kg, F) was 95700 ng·h/mL. The AUC0-24 in rat plasma ([3]; Day 1, belumosudil 150 mg base/kg, M) was 81600 ng·h/mL, the AUC0-24 in rat plasma ([3]; Day 1, belumosudil 275 mg base/kg, F) was 122000 ng·h/mL and the AUC0-24 in rat plasma ([3]; Day 1, belumosudil 275 mg base/kg, M) was 96400 ng·h/mL. It also gave an AUC0-24 in rat plasma ([3]; Day 14, belumosudil 50 mg base/kg, F) of 26200 ng·h/mL, an AUC0-24 in rat plasma ([3]; Day 14, belumosudil 150 mg base/kg, F) of 99500 ng·h/mL and an AUC0-24 in rat plasma ([3]; Day 14, belumosudil 275 mg base/kg, F) of 209000 ng·h/mL. The AUC0-24 in rat plasma ([3]; Day 70, belumosudil 50 mg base/kg, M) was 21600 ng·h/mL, the AUC0-24 in rat plasma ([3]; Day 70, belumosudil 150 mg base/kg, M) was 70100 ng·h/mL and the AUC0-24 in rat plasma ([3]; Day 70, belumosudil 275 mg base/kg, M) was 191000 ng·h/mL. The “sex difference in AUC0-24, females higher than males” value [3, 6] was roughly 2.44 fold, the “sex difference in Cmax, females higher than males” value [3, 6] was “approximately 2.10 fold” and the Cmax ([3]; female, Sprague-Dawley, oral, 150 mg base/kg) was 9860 ng/mL. For the same compound, the AUC(0-t) ([3]; female, Sprague-Dawley, oral, 150 mg base/kg/day, females) was 99500 ng·h/mL, the Cmax ([3]; female, Sprague-Dawley, po, 50 mg/kg/day) was 3200 ng/mL and the AUC(0-t) ([3]; female, Sprague-Dawley, po, 50 mg/kg/day, 50 mg base/kg/day, females) was 26200 ng·h/mL. For the same compound, the Cmax ([3]; female, Sprague-Dawley, po, 275 mg/kg/day, Day 14, belumosudil 275 mg base/kg, F) was 14900 ng/mL, the AUC(0-t) ([3]; female, Sprague-Dawley, po, 275 mg/kg/day, 275 mg base/kg/day, females) was 209000 ng·h/mL and the Cmax ([3]; female, po, 50 mg/kg/day) was 4540 ng/mL. It also gave a Cmax ([3]; female, po, 150 mg/kg/day) of 5670 ng/mL, a Cmax ([3]; female, po, 275 mg/kg/day, Day 1, belumosudil 275 mg base/kg, F) of 7050 ng/mL and a Cmax ([3]; male, Sprague-Dawley, po, 50 mg/kg/day) of 2480 ng/mL. It also gave an AUC(0-t) ([3]; male, Sprague-Dawley, po, 50 mg/kg/day, 50 mg base/kg/day, males) of 21600 ng·h/mL, a Cmax ([3]; male, Sprague-Dawley, po, 150 mg/kg/day) of 10100 ng/mL and an AUC(0-t) ([3]; male, Sprague-Dawley, po, 150 mg/kg/day, 150 mg base/kg/day, males) of 70100 ng·h/mL. For the same compound, the Cmax ([3]; male, po, 50 mg/kg/day) was 2170 ng/mL, the Cmax ([3]; male, po, 150 mg/kg/day) was 5370 ng/mL and the Cmax ([3]; male, po, 275 mg/kg/day, Day 1, belumosudil 275 mg base/kg, M) was 7200 ng/mL. For the same compound, the Cmax ([3]; male, po, 275 mg/kg/day, Day 70, belumosudil 275 mg base/kg, M) was 20400 ng/mL, the minor metabolizing enzymes [4] was “to a lesser extent by CYP2C8, CYP2D6, and UGT1A9” and the primary metabolizing enzyme [5] was “primarily metabolized by CYP3A4”.
